Measured values from patent publication US20230049952A1, “METHODS AND COMPOUNDS FOR RESTORING MUTANT P53 FUNCTION” (PMV Pharmaceuticals, Inc., priority 2020, published 2023).

Tested on: p53 signaling pathway in MT373 tumors
Assay: MT373 syngeneic sarcoma model: mouse p53 signaling pathway profiling panel
Assay type: in vivo

CCn1c(C#CCNc2ccccc2)cc2cc(CNC3CCN(C)CC3)ccc21 [Compound 1, 1-Anilino-3-{1-ethyl-5-[(1-methyl-4-piperidylamino)methyl]-1H-indol-2-yl}-2-propyne]
Il6 fold increase or percent reduction vs vehicle control (150 mg/kg BIDx1, 8 h): 42.72 fold or %
Jun fold increase or percent reduction vs vehicle control (150 mg/kg BIDx1, 8 h): 32.68 fold or %
Kras fold increase or percent reduction vs vehicle control (150 mg/kg BIDx1, 8 h): 8.77 fold or %
Lig4 fold increase or percent reduction vs vehicle control (150 mg/kg BIDx1, 8 h): 9.59 fold or %
Mdm2 fold increase or percent reduction vs vehicle control (150 mg/kg BIDx1, 8 h): 7.29 fold or %
Mdm4 fold increase or percent reduction vs vehicle control (150 mg/kg BIDx1, 8 h): 0.59 fold or %
Mel1 fold increase or percent reduction vs vehicle control (150 mg/kg BIDx1, 8 h): 3.87 fold or %
Mlh1 fold increase or percent reduction vs vehicle control (150 mg/kg BIDx1, 8 h): 28.64 fold or %
Msh2 fold increase or percent reduction vs vehicle control (150 mg/kg BIDx1, 8 h): 35.13 fold or %
Myod1 fold increase or percent reduction vs vehicle control (150 mg/kg BIDx1, 8 h): 14.90 fold or %
Nf1 fold increase or percent reduction vs vehicle control (150 mg/kg BIDx1, 8 h): 17.13 fold or %
Nfkb1 fold increase or percent reduction vs vehicle control (150 mg/kg BIDx1, 8 h): 6.02 fold or %
Pcna fold increase or percent reduction vs vehicle control (150 mg/kg BIDx1, 8 h): 44.75 fold or %
Pmaip1 fold increase or percent reduction vs vehicle control (150 mg/kg BIDx1, 8 h): 2.33 fold or %
Ppm1d fold increase or percent reduction vs vehicle control (150 mg/kg BIDx1, 8 h): 1.44 fold or %
Prc1 fold increase or percent reduction vs vehicle control (150 mg/kg BIDx1, 8 h): 17.14 fold or %
Prkca fold increase or percent reduction vs vehicle control (150 mg/kg BIDx1, 8 h): 27.03 fold or %
Pten fold increase or percent reduction vs vehicle control (150 mg/kg BIDx1, 8 h): 14.47 fold or %
Pttg1 fold increase or percent reduction vs vehicle control (150 mg/kg BIDx1, 8 h): 3.91 fold or %
Rb1 fold increase or percent reduction vs vehicle control (150 mg/kg BIDx1, 8 h): 1.08 fold or %
Rela fold increase or percent reduction vs vehicle control (150 mg/kg BIDx1, 8 h): 5.08 fold or %
Rprm fold increase or percent reduction vs vehicle control (150 mg/kg BIDx1, 8 h): 1.81 fold or %
Serpinb5 fold increase or percent reduction vs vehicle control (150 mg/kg BIDx1, 8 h): 2.43 fold or %
Sesn2 fold increase or percent reduction vs vehicle control (150 mg/kg BIDx1, 8 h): 2.88 fold or %
Sfn fold increase or percent reduction vs vehicle control (150 mg/kg BIDx1, 8 h): 15.09 fold or %
Sirt1 fold increase or percent reduction vs vehicle control (150 mg/kg BIDx1, 8 h): 24.95 fold or %
Stat1 fold increase or percent reduction vs vehicle control (150 mg/kg BIDx1, 8 h): 1.23 fold or %
Tnf fold increase or percent reduction vs vehicle control (150 mg/kg BIDx1, 8 h): 1.57 fold or %
Traf1 fold increase or percent reduction vs vehicle control (150 mg/kg BIDx1, 8 h): 1.4 fold or %
Trp53bp2 fold increase or percent reduction vs vehicle control (150 mg/kg BIDx1, 8 h): 29.54 fold or %
Trp53 fold increase or percent reduction vs vehicle control (150 mg/kg BIDx1, 8 h): 16.49 fold or %
Apex1 fold increase or percent reduction vs vehicle control (150 mg/kg BIDx1, 24 h): 29.90 fold or %
Atm fold increase or percent reduction vs vehicle control (150 mg/kg BIDx1, 24 h): 24.13 fold or %
Atr fold increase or percent reduction vs vehicle control (150 mg/kg BIDx1, 24 h): 14.58 fold or %
Bag1 fold increase or percent reduction vs vehicle control (150 mg/kg BIDx1, 24 h): 32.76 fold or %
Bax fold increase or percent reduction vs vehicle control (150 mg/kg BIDx1, 24 h): 1.61 fold or %
Bbc3 fold increase or percent reduction vs vehicle control (150 mg/kg BIDx1, 24 h): 2.27 fold or %
Bcl2 fold increase or percent reduction vs vehicle control (150 mg/kg BIDx1, 24 h): 20.93 fold or %
Bid fold increase or percent reduction vs vehicle control (150 mg/kg BIDx1, 24 h): 1.08 fold or %
Birc5 fold increase or percent reduction vs vehicle control (150 mg/kg BIDx1, 24 h): 53.57 fold or %
Brca1 fold increase or percent reduction vs vehicle control (150 mg/kg BIDx1, 24 h): 44.99 fold or %
Brca2 fold increase or percent reduction vs vehicle control (150 mg/kg BIDx1, 24 h): 34.71 fold or %
Btg2 fold increase or percent reduction vs vehicle control (150 mg/kg BIDx1, 24 h): 1.06 fold or %
Casp2 fold increase or percent reduction vs vehicle control (150 mg/kg BIDx1, 24 h): 28.04 fold or %
Ccnb1 fold increase or percent reduction vs vehicle control (150 mg/kg BIDx1, 24 h): 69.21 fold or %
Ccne1 fold increase or percent reduction vs vehicle control (150 mg/kg BIDx1, 24 h): 38.46 fold or %
Ccng1 fold increase or percent reduction vs vehicle control (150 mg/kg BIDx1, 24 h): 6.84 fold or %
Ccnh fold increase or percent reduction vs vehicle control (150 mg/kg BIDx1, 24 h): 16.52 fold or %
Cdc25a fold increase or percent reduction vs vehicle control (150 mg/kg BIDx1, 24 h): 41.75 fold or %
Cdk1 fold increase or percent reduction vs vehicle control (150 mg/kg BIDx1, 24 h): 64.58 fold or %
Cdk4 fold increase or percent reduction vs vehicle control (150 mg/kg BIDx1, 24 h): 55.89 fold or %
Cdkn1a fold increase or percent reduction vs vehicle control (150 mg/kg BIDx1, 24 h): 10.93 fold or %
Cdkn2a fold increase or percent reduction vs vehicle control (150 mg/kg BIDx1, 24 h): 36.93 fold or %
Chek1 fold increase or percent reduction vs vehicle control (150 mg/kg BIDx1, 24 h): 58.77 fold or %
Cradd fold increase or percent reduction vs vehicle control (150 mg/kg BIDx1, 24 h): 18.77 fold or %
Cul9 fold increase or percent reduction vs vehicle control (150 mg/kg BIDx1, 24 h): 1.05 fold or %
Dapk1 fold increase or percent reduction vs vehicle control (150 mg/kg BIDx1, 24 h): 1.14 fold or %
Dnmt1 fold increase or percent reduction vs vehicle control (150 mg/kg BIDx1, 24 h): 22.85 fold or %
E2f1 fold increase or percent reduction vs vehicle control (150 mg/kg BIDx1, 24 h): 26.25 fold or %
E2f3 fold increase or percent reduction vs vehicle control (150 mg/kg BIDx1, 24 h): 39.40 fold or %
Egfr fold increase or percent reduction vs vehicle control (150 mg/kg BIDx1, 24 h): 47.37 fold or %
Egr1 fold increase or percent reduction vs vehicle control (150 mg/kg BIDx1, 24 h): 66.33 fold or %
Ep300 fold increase or percent reduction vs vehicle control (150 mg/kg BIDx1, 24 h): 1.15 fold or %
Ercc1 fold increase or percent reduction vs vehicle control (150 mg/kg BIDx1, 24 h): 34.86 fold or %
Esr1 fold increase or percent reduction vs vehicle control (150 mg/kg BIDx1, 24 h): 1.24 fold or %
Fadd fold increase or percent reduction vs vehicle control (150 mg/kg BIDx1, 24 h): 8.43 fold or %
Fas fold increase or percent reduction vs vehicle control (150 mg/kg BIDx1, 24 h): 1.94 fold or %
Fasl fold increase or percent reduction vs vehicle control (150 mg/kg BIDx1, 24 h): 6.77 fold or %
Foxo3 fold increase or percent reduction vs vehicle control (150 mg/kg BIDx1, 24 h): 1.20 fold or %
Gadd45a fold increase or percent reduction vs vehicle control (150 mg/kg BIDx1, 24 h): 38.66 fold or %
Hif1a fold increase or percent reduction vs vehicle control (150 mg/kg BIDx1, 24 h): 10.42 fold or %
Il6 fold increase or percent reduction vs vehicle control (150 mg/kg BIDx1, 24 h): 85.31 fold or %
Jun fold increase or percent reduction vs vehicle control (150 mg/kg BIDx1, 24 h): 46.70 fold or %
Kras fold increase or percent reduction vs vehicle control (150 mg/kg BIDx1, 24 h): 9.19 fold or %
Lig4 fold increase or percent reduction vs vehicle control (150 mg/kg BIDx1, 24 h): 1.02 fold or %
Mdm2 fold increase or percent reduction vs vehicle control (150 mg/kg BIDx1, 24 h): 5.96 fold or %
Mdm4 fold increase or percent reduction vs vehicle control (150 mg/kg BIDx1, 24 h): 1.22 fold or %
Mel1 fold increase or percent reduction vs vehicle control (150 mg/kg BIDx1, 24 h): 9.59 fold or %
Mlh1 fold increase or percent reduction vs vehicle control (150 mg/kg BIDx1, 24 h): 10.59 fold or %
Msh2 fold increase or percent reduction vs vehicle control (150 mg/kg BIDx1, 24 h): 26.97 fold or %
Myod1 fold increase or percent reduction vs vehicle control (150 mg/kg BIDx1, 24 h): 3.09 fold or %
Nf1 fold increase or percent reduction vs vehicle control (150 mg/kg BIDx1, 24 h): 12.02 fold or %
Nfkb1 fold increase or percent reduction vs vehicle control (150 mg/kg BIDx1, 24 h): 5.42 fold or %
